Data on 8 compounds can be found in patent US8008290B2, “Compounds” (priority 2009, dated 2011).

Assay [1] has as its target T1, Human recombinant cathepsin K (Homo sapiens, UniProt P43235).
T1 sequence (P43235 115-329): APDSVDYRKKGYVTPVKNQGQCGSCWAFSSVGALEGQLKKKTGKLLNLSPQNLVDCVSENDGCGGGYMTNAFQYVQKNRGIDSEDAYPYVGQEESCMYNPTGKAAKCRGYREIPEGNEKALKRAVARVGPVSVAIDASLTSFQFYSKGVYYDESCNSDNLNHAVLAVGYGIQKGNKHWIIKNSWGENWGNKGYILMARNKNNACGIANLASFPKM
As to the kind of experiment: In vitro cathepsin Ki inhibition measurement, cathepsin K. The settings on record: for Ki: human cathepsin K, steady-state, competitive model, read-out: In vitro Ki (nM) vs Cath K. Type of assay: biochemical. On the procedure:
Stock solutions of substrate or inhibitor were made up to 10 mM in 100% dimethylsulfoxide (DMSO) (Rathburns, Glasgow, U.K.) and diluted as appropriately required. In all cases the DMSO concentration in the assays was maintained at less than 1% (vol./vol.). The equilibrium inhibition constants (Ki^ss) for each compound were measured under steady-state conditions monitoring enzyme activity as a function of inhibitor concentration. […] B. […] The apparent inhibition constant (Ki) for each compound was determined on the basis that inhibition was reversible and occurred by a pure-competitive mechanism. […] F. Trends Biochem. […] Morrison, J. F. Biochim. Biophys. […] Curves were fitted by non-linear regression analysis (Prism) using a fixed value for the enzyme concentration.

Assay [2] addresses T2, Human recombinant cathepsin S (Homo sapiens, UniProt P25774).
T2 construct: purchased Merck 219343; host or cells: E. coli
Nature of the assay: In vitro cathepsin Ki inhibition measurement, cathepsin S. Type of assay: biochemical. On the procedure:
Stock solutions of substrate or inhibitor were made up to 10 mM in 100% dimethylsulfoxide (DMSO) (Rathburns, Glasgow, U.K.) and diluted as appropriately required. In all cases the DMSO concentration in the assays was maintained at less than 1% (vol./vol.). The equilibrium inhibition constants (Ki^ss) for each compound were measured under steady-state conditions monitoring enzyme activity as a function of inhibitor concentration. […] The apparent inhibition constant (Ki) for each compound was determined on the basis that inhibition was reversible and occurred by a pure-competitive mechanism. […] Biophys. […] Curves were fitted by non-linear regression analysis (Prism) using a fixed value for the enzyme concentration.

T2 sequence (P25774 115-331): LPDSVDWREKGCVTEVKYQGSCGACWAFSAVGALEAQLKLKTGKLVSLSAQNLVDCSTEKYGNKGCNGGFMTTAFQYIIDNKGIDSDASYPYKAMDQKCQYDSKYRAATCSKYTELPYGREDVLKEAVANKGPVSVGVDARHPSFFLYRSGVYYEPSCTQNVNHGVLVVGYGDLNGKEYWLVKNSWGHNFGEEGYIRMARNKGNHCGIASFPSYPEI

As for `O=C(N[C@@H](CC1CCCCC1)C(=O)N1CC[C@H]2OCC(=O)[C@H]21)c1ccccc1` [Prior art compound 38, reference compound], the Ki (in general, a measure of affinity in units of concentration, obtained from inhibition or displacement) in assay [1] was over 4000 nM.
Turning to `O=C(N[C@H](C(=O)N1C[C@H](F)[C@H]2OCC(=O)[C@H]21)C1CCCCC1)c1cccc(-n2cnnn2)c1` [Compound 4], in assay [2] (relative to compound 3), the “fold improvement in in vitro potency against human cathepsin S” value is on record as 3.4 fold. The Ki in assay [1] was determined as 340 nM. The “fold improvement in in vitro potency against human cathepsin K” value in assay [1] (relative to compound 3) is on record as 1.7 fold.
Turning to `O=C(N[C@H](C(=O)N1C[C@H](Cl)[C@H]2OCC(=O)[C@H]21)C1CCCCC1)c1cccc(-n2cnnn2)c1` [EXAMPLE 2, N—((S)-2-((3aS,6S,6aS)-6-chloro-3-oxodihydro-2H-furo[3,2-b]pyrrol-4(5H,6H,6aH)-yl)-1-cyclohexyl-2-oxoethyl)-3-(1H-tetrazol-1-yl)benzamide], the “fold improvement in in vitro potency against human cathepsin S” value in assay [2] (relative to compound 3) was 47 fold. Besides, in assay [1], the inhibitory constant (Ki) is 27 nM. The “fold improvement in in vitro potency against human cathepsin K” value in assay [1] (relative to compound 3) amounted to 20.5 fold.
For the compound `O=C(N[C@H](C(=O)N1C[C@H](Cl)[C@H]2OCC(=O)[C@H]21)C1CCCCC1)c1ccccc1` [EXAMPLE 1, N—((S)-2-((3aS,6S,6aS)-6-chloro-3-oxodihydro-2H-furo[3,2-b]pyrrol-4(5H,6H,6aH)-yl)-1-cyclohexyl-2-oxoethyl)benzamide], in assay [1], the Ki was found to be 35 nM.
Take `O=C(N[C@H](C(=O)N1CC[C@H]2OCC(=O)[C@H]21)C1CCCCC1)c1cccc(-n2cnnn2)c1` [Compound 3]: the inhibition constant Ki in assay [1] stood at 560 nM.
Still for that read-out and setting: under `O=C(N[C@H](C(=O)N1C[C@@H](Cl)[C@H]2OCC(=O)[C@H]21)C1CCCCC1)c1cccc(-n2ccnc2)c1` [Compound 5] stands 230 nM; under `O=C(N[C@H](C(=O)N1C[C@H](Cl)[C@H]2OCC(=O)[C@H]21)C1CCCCC1)c1cccc(-n2ccnc2)c1` [EXAMPLE 3, N—((S)-2-((3aS,6S,6aS)-6-chloro-3-oxodihydro-2H-furo[3,2-b]pyrrol-4(5H,6H,6aH)-yl)-1-cyclohexyl-2-oxoethyl)-3-(1H-imidazol-1-yl)benzamide], 23 nM.
For the compound `O=C(N[C@H](C(=O)N1C[C@H](F)[C@H]2OCC(=O)[C@H]21)C1CCCCC1)c1ccccc1` [Compound 2], the “fold improvement in in vitro potency against human cathepsin S” value in assay [2] (relative to Compound 1) came to 3.8 fold. For the same compound, the Ki in assay [1] worked out at 95 nM. Moreover, the “fold improvement in in vitro potency against human cathepsin K” value in assay [1] (relative to Compound 1) amounted to 3.2 fold.
